Square brackets hold non-standard residues; d marks the D form. Side chains are listed from the residue outwards. Peptide text beside a SMILES is read from it. Phe(3,4-F2) = N[C@@H](Cc1ccc(F)c(F)c1)C(=O)O; Phe(4-F) = N[C@@H](Cc1ccc(F)cc1)C(=O)O; d2Nal = N[C@H](Cc1ccc2ccccc2c1)C(=O)O; Tle = CC(C)(C)[C@H](N)C(=O)O; dNle = CCCC[C@@H](N)C(=O)O
What follows are molecules tested against T1, K-Ras / Raf RBD interaction (Homo sapiens, UniProt P01116, G12V) (assay: HTRF assay, inhibition of Ras-Raf RBD interaction). Conditions: not given.
T1 construct: The G12V mutant K-Ras (amino acids 1-185) was recombinantly fused; GST (N, cleaved yes); made in house; host or cells: Escherichia coli BL21
Format: binding
`CCCC[C@H]1NC(=O)[C@H](Cc2ccc(F)c(F)c2)NC(=O)[C@H](CCCNC(=N)N)NC(=O)[C@@H](Cc2ccc3ccccc3c2)NC(=O)[C@H](CCCNC(=N)N)NC(=O)[C@H](CCCNC(=N)N)NC(=O)[C@H](CCCNC(=N)N)NC(=O)[C@@H](C)NC(=O)[C@H]([C@@H](C)O)NC(=O)[C@H](Cc2c[nH]c3ccccc23)NC(=O)[C@H](CCC(N)=O)NC1=O` [Cyclorasin 9A43, (Trp-Thr-ala-Arg-Arg-Arg-nal-Arg-Phe(3,4-difluoro)-nle-Gln)] (cyclo(WT[dA]RRR[d2Nal]R[Phe(3,4-F2)][dNle]Q)) gave an IC50 of 64 nM. `CCCC[C@H]1NC(=O)[C@H](Cc2ccc(F)cc2)NC(=O)[C@H](CCCNC(=N)N)NC(=O)[C@@H](Cc2ccc3ccccc3c2)NC(=O)[C@H](CCCNC(=N)N)NC(=O)[C@H](CCCNC(=N)N)NC(=O)[C@@H](CCCNC(=N)N)NC(=O)[C@@H](C)NC(=O)[C@H](CO)NC(=O)[C@H](Cc2c[nH]c3ccccc23)NC(=O)[C@H](CCC(N)=O)NC1=O` [Cyclorasin 9A17, (Trp-Ser-ala-arg-Arg-Arg-nal-Arg-Fpa-nle-Gln)] (cyclo(WS[dA][dR]RR[d2Nal]R[Phe(4-F)][dNle]Q)) gave an IC50 of 720 ± 310 nM. `CCCC[C@H]1NC(=O)[C@H](Cc2ccc(F)cc2)NC(=O)[C@H](CCCNC(=N)N)NC(=O)[C@@H](Cc2ccc3ccccc3c2)NC(=O)[C@H](CCCNC(=N)N)NC(=O)[C@H](CCCNC(=N)N)NC(=O)[C@H](CCCNC(=N)N)NC(=O)[C@@H](C(C)C)NC(=O)[C@H]([C@@H](C)O)NC(=O)[C@H](Cc2c[nH]c3ccccc23)NC(=O)[C@H](CCC(N)=O)NC1=O` [Cyclorasin 9A47, (Trp-Thr-val-Arg-Arg-Arg-nal-Arg-Fpa-nle-Gln)] (cyclo(WT[dV]RRR[d2Nal]R[Phe(4-F)][dNle]Q)) was tested, and the IC50 was 86 ± 11 nM. In the case of `CCCC[C@H]1NC(=O)[C@H](Cc2ccc(F)cc2)NC(=O)[C@H](CCCNC(=N)N)NC(=O)[C@@H](Cc2ccc3ccccc3c2)NC(=O)[C@H](CCCNC(=N)N)NC(=O)[C@H](CCCNC(=N)N)NC(=O)[C@@H](CCCNC(=N)N)NC(=O)[C@@H](CC(C)C)NC(=O)[C@H]([C@@H](C)O)NC(=O)[C@H](Cc2c[nH]c3ccccc23)NC(=O)[C@H](CCC(N)=O)NC1=O` [Cyclorasin 9A15, (Trp-Thr-leu-arg-Arg-Arg-nal-Arg-Fpa-nle-Gln)] (cyclo(WT[dL][dR]RR[d2Nal]R[Phe(4-F)][dNle]Q)), the IC50 is reported as 110 ± 40 nM. `CCCC[C@H]1NC(=O)[C@H](Cc2ccc(F)cc2)NC(=O)[C@H](CCCNC(=N)N)NC(=O)[C@@H](Cc2ccc3ccccc3c2)NC(=O)[C@H](CCCNC(=N)N)NC(=O)[C@H](CCCNC(=N)N)NC(=O)[C@H](CCCNC(=N)N)NC(=O)[C@@H](CC(C)C)NC(=O)[C@H](C(C)(C)C)NC(=O)[C@H](Cc2c[nH]c3ccccc23)NC(=O)[C@H](CCC(N)=O)NC1=O` [Cyclorasin 9A41, (Trp-Tle-leu-Arg-Arg-Arg-nal-Arg-Fpa-nle-Gln)] (cyclo(W[Tle][dL]RRR[d2Nal]R[Phe(4-F)][dNle]Q)) was tested, and the IC50 was 2000 ± 900 nM. With `CCCC[C@H]1NC(=O)[C@H](Cc2ccc(F)cc2)NC(=O)[C@H](CCCNC(=N)N)NC(=O)[C@@H](Cc2ccc3ccccc3c2)NC(=O)[C@H](CCCNC(=N)N)NC(=O)[C@H](CCCNC(=N)N)NC(=O)[C@H](CCC(=O)N[C@@H](CCCCN)C(N)=O)NC(=O)[C@@H](C)NC(=O)[C@H](C)NC(=O)[C@H](Cc2c[nH]c3ccccc23)NC(=O)[C@@H](CO)NC1=O` [Cyclorasin 9A(Thr9A), (Arg-Arg-nal-Arg-Fpa-nle-ser-Trp-Ala-ala-Gln)-Lys] (cyclo(A[dA]E([Lys-NH2])RR[d2Nal]R[Phe(4-F)][dNle][dS]W)) the IC50 was > 10000 nM. In the case of `C[C@H]1NC(=O)[C@H]([C@@H](C)O)NC(=O)[C@H](Cc2c[nH]c3ccccc23)NC(=O)[C@H](CCC(N)=O)NC(=O)[C@@H](CCCNC(=N)N)NC(=O)[C@H](Cc2ccc(F)cc2)NC(=O)[C@H](CCCNC(=N)N)NC(=O)[C@@H](Cc2ccc3ccccc3c2)NC(=O)[C@H](CCCNC(=N)N)NC(=O)[C@H](CCCNC(=N)N)NC(=O)[C@H](CCCNC(=N)N)NC1=O` [Cyclorasin 9A45, (Trp-Thr-ala-Arg-Arg-Arg-nal-Arg-Fpa-arg-Gln)] (cyclo(WT[dA]RRR[d2Nal]R[Phe(4-F)][dR]Q)), the IC50 is reported as 36 ± 4 nM. `CCCC[C@H]1NC(=O)[C@H](Cc2ccc(F)cc2)NC(=O)[C@H](CCCNC(=N)N)NC(=O)[C@@H](Cc2ccc3ccccc3c2)NC(=O)[C@H](CCCNC(=N)N)NC(=O)[C@H](CCCNC(=N)N)NC(=O)[C@H](CCCNC(=N)N)NC(=O)[C@@H](C(C)C)NC(=O)[C@H](C(C)(C)C)NC(=O)[C@H](Cc2c[nH]c3ccccc23)NC(=O)[C@H](CCC(N)=O)NC1=O` [Cyclorasin 9A48, (Trp-Tle-val-Arg-Arg-Arg-nal-Arg-Fpa-nle-Gln)] (cyclo(W[Tle][dV]RRR[d2Nal]R[Phe(4-F)][dNle]Q)) gave an IC50 of 48 ± 3 nM.

Same assay, conditions: relative to parent 9A5/9A6
With `CCCC[C@H]1NC(=O)[C@H](Cc2ccc(F)c(F)c2)NC(=O)[C@H](CCCNC(=N)N)NC(=O)[C@@H](Cc2ccc3ccccc3c2)NC(=O)[C@H](CCCNC(=N)N)NC(=O)[C@H](CCCNC(=N)N)NC(=O)[C@H](CCCNC(=N)N)NC(=O)[C@@H](C)NC(=O)[C@H]([C@@H](C)O)NC(=O)[C@H](Cc2c[nH]c3ccccc23)NC(=O)[C@H](CCC(N)=O)NC1=O` [Cyclorasin 9A43, (Trp-Thr-ala-Arg-Arg-Arg-nal-Arg-Phe(3,4-difluoro)-nle-Gln)] (cyclo(WT[dA]RRR[d2Nal]R[Phe(3,4-F2)][dNle]Q)) the “increase in Ras binding affinity upon residue substitution” value was 2 fold. With `C[C@H]1NC(=O)[C@H]([C@@H](C)O)NC(=O)[C@H](Cc2c[nH]c3ccccc23)NC(=O)[C@H](CCC(N)=O)NC(=O)[C@@H](CCCNC(=N)N)NC(=O)[C@H](Cc2ccc(F)cc2)NC(=O)[C@H](CCCNC(=N)N)NC(=O)[C@@H](Cc2ccc3ccccc3c2)NC(=O)[C@H](CCCNC(=N)N)NC(=O)[C@H](CCCNC(=N)N)NC(=O)[C@H](CCCNC(=N)N)NC1=O` [Cyclorasin 9A45, (Trp-Thr-ala-Arg-Arg-Arg-nal-Arg-Fpa-arg-Gln)] (cyclo(WT[dA]RRR[d2Nal]R[Phe(4-F)][dR]Q)) the “increase in Ras binding affinity upon residue substitution” value was 4 fold.
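Note: HTRF signal read after overnight incubation of the assay plate at 4 °C.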
